According to patent US20190169134A1, “NOVEL CLASS OF QUINOLONE HETEROCYCLIC AROMATIC MOLECULES FOR CANCER TREATMENT” (RenoTarget Therapeutics, Inc., priority 2016, published 2019):

Legend:
Assay in all cases: KinaseSeeker competition binding assay
PDGFRA = target: T1, PDGFRA (Homo sapiens, UniProt P16234)
T1 construct: made in house; host or cells: cell-free, rabbit reticulocyte lysate
Method: (§1) Compound Reno647 was profiled against the following panel of kinases at 2 μM using the KinaseSeeker™ assay: ABL1, AKT1, AKT2, AKT3, ALK, AURKA, AXL, BRAF, BTK, CDK2, CDK5, CDK7, CDK8, CSF1R, DDR1, EGFR del L747-P753 InsS, EGFR (L861Q), EGFR (G719S), EGFR, EGFR (L858R), EPHA2, EPHB2, FGFR3, FLT1/VEGFR1, FLT2/FGFR1, FLT3, FLT4/VEGFR3, GSK-3a, HER2, IGF1R, INSR, KIT, LIMK1, MET, MLK2/MAP3K10, RPS6KA5/MSK1, MUSK, p38a/MAPK12, PDGFRA, PDGFRB, PDK1, RET, RIPK2, RPS6KA1/RSK1, SRC, TEC, TESK1, TRKB, VEGFR2, and YES 1.
(§2) KinaseSeeker is a homogeneous competition binding assay where the displacement of an active site dependent probe by an inhibitor is measured by a change in luminescence signal (see FIG. 7). Luminescence readout translates into a highly sensitive and robust assay with low background and minimal interference from test compounds.
(§3) (Jester, Cox et al. 2010; Jester, Gaj et al. 2012): 10 mM stock of compound Reno647 was diluted in DMSO to a concentration of 50 μM. Prior to initiating a profiling campaign, the compound was evaluated for false positive against split-luciferase. The compound was then screened in duplicate against each of the kinases. For kinase assays, each Cfluc-Kinase was translated along with Fos-Nfluc using a cell-free system (rabbit reticulocyte lysate) at 30° C. for 90 min. A 24 μL aliquot of this lysate containing either 1 μL of DMSO (for no-inhibitor control) or compound solution in DMSO (2 LM final concentration) was incubated for 30 minutes at room temperature followed by 1 hour in the presence of a kinase specific probe. A 80 μL of luciferin assay reagent was added to each solution and luminescence was immediately measured on a luminometer.
(§4) The % Inhibition and % Activity Remaining were calculated using the following equations:
(§5) % inhibition=(ALUcontrol−ALUsample)×100
(§6) % activity=100−% inhibition.

RSK1 = target: T2, RSK1 (Homo sapiens, UniProt Q15418)
T2 construct: made in house; host or cells: cell-free, rabbit reticulocyte lysate
Method: as §1, §2, §3, §4, §5, §6

AKT2 = target: T3, AKT2 (Homo sapiens, UniProt P31751)
T3 construct: made in house; host or cells: cell-free system (rabbit reticulocyte lysate)
Method: as §1, §2, §3, §4, §5, §6

FLT4 = target: T4, FLT4 (Homo sapiens, UniProt P35916)
T4 construct: made in house; host or cells: cell-free, rabbit reticulocyte lysate
Method: as §1, §2, §3, §4, §5, §6

AKT3 = target: T5, AKT3 (Homo sapiens, UniProt Q9Y243)
T5 construct: made in house; host or cells: cell-free system (rabbit reticulocyte lysate)
Method: as §1, §2, §3, §4, §5, §6

VEGFR2 = target: T6, VEGFR2 (Homo sapiens, UniProt P35968)
T6 construct: made in house; host or cells: cell-free, rabbit reticulocyte lysate
Method: as §1, §2, §3, §4, §5, §6

MET = target: T7, MET (Homo sapiens, UniProt P08581)
T7 construct: made in house; host or cells: cell-free, rabbit reticulocyte lysate
Method: as §1, §2, §3, §4, §5, §6

IGF1R = target: T8, IGF1R (Homo sapiens, UniProt P08069)
T8 construct: made in house; host or cells: cell-free, rabbit reticulocyte lysate
Method: as §1, §2, §3, §4, §5, §6

CDK8 = target: T9, CDK8 (Homo sapiens, UniProt P49336)
T9 construct: made in house; host or cells: cell-free system (rabbit reticulocyte lysate)
Method: as §1, §2, §3, §4, §5, §6

CDK5 = target: T10, CDK5 (Homo sapiens, UniProt Q00535)
T10 construct: made in house; host or cells: cell-free system (rabbit reticulocyte lysate)
Method: as §1, §2, §3, §4, §5, §6

p38a = settings: 2 μM
Method: as §1, §2, §3, §4, §5, §6

RIPK2 = target: T11, RIPK2 (Homo sapiens, UniProt O43353)
T11 construct: made in house; host or cells: cell-free, rabbit reticulocyte lysate
Method: as §1, §2, §3, §4, §5, §6

GSK3A = target: T12, GSK3A (Homo sapiens, UniProt P49840)
T12 construct: made in house; host or cells: cell-free, rabbit reticulocyte lysate
Method: as §1, §2, §3, §4, §5, §6

CSF1R = target: T13, CSF1R (Homo sapiens, UniProt P07333)
T13 construct: made in house; host or cells: cell-free system (rabbit reticulocyte lysate)
Method: as §1, §2, §3, §4, §5, §6

SRC = target: T14, SRC (Homo sapiens, UniProt P12931)
T14 construct: made in house; host or cells: cell-free, rabbit reticulocyte lysate
Method: as §1, §2, §3, §4, §5, §6

MLK2 = target: T15, MLK2 (Homo sapiens, UniProt Q02779)
T15 construct: made in house; host or cells: cell-free, rabbit reticulocyte lysate
Method: as §1, §2, §3, §4, §5, §6

YES1 = target: T16, YES1 (Homo sapiens, UniProt P07947)
T16 construct: made in house; host or cells: cell-free, rabbit reticulocyte lysate
Method: as §1, §2, §3, §4, §5, §6

BRAF = target: T17, BRAF (Homo sapiens, UniProt P15056)
T17 construct: made in house; host or cells: cell-free system (rabbit reticulocyte lysate)
Method: as §1, §2, §3, §4, §5, §6

TESK1 = target: T18, TESK1 (Homo sapiens, UniProt Q15569)
T18 construct: made in house; host or cells: cell-free, rabbit reticulocyte lysate
Method: as §1, §2, §3, §4, §5, §6

HER2 = target: T19, HER2 (Homo sapiens, UniProt P04626)
T19 construct: made in house; host or cells: cell-free, rabbit reticulocyte lysate
Method: as §1, §2, §3, §4, §5, §6

EPHB2 = target: T20, EPHB2 (Homo sapiens, UniProt P29323)
T20 construct: made in house; host or cells: cell-free system (rabbit reticulocyte lysate)
Method: as §1, §2, §3, §4, §5, §6

MSK1 = target: T21, MSK1 (Homo sapiens, UniProt O75582)
T21 construct: made in house; host or cells: cell-free, rabbit reticulocyte lysate
Method: as §1, §2, §3, §4, §5, §6

TEC = target: T22, TEC (Homo sapiens, UniProt P42680)
T22 construct: made in house; host or cells: cell-free, rabbit reticulocyte lysate
Method: as §1, §2, §3, §4, §5, §6

MUSK = target: T23, MUSK (Homo sapiens, UniProt O15146)
T23 construct: made in house; host or cells: cell-free, rabbit reticulocyte lysate
Method: as §1, §2, §3, §4, §5, §6

PDPK1 = target: T24, PDPK1 (Homo sapiens, UniProt O15530)
T24 construct: made in house; host or cells: cell-free, rabbit reticulocyte lysate
Method: as §1, §2, §3, §4, §5, §6

FGFR3 = target: T25, FGFR3 (Homo sapiens, UniProt P22607)
T25 construct: made in house; host or cells: cell-free system (rabbit reticulocyte lysate)
Method: as §1, §2, §3, §4, §5, §6

ABL1 = target: T26, ABL1 (Homo sapiens, UniProt P00519)
T26 construct: made in house; host or cells: cell-free system (rabbit reticulocyte lysate)
Method: as §1, §2, §3, §4, §5, §6

INSR = target: T27, INSR (Homo sapiens, UniProt P06213)
T27 construct: made in house; host or cells: cell-free, rabbit reticulocyte lysate
Method: as §1, §2, §3, §4, §5, §6

FLT3 = target: T28, FLT3 (Homo sapiens, UniProt P36888)
T28 construct: made in house; host or cells: cell-free, rabbit reticulocyte lysate
Method: as §1, §2, §3, §4, §5, §6

FLT1 = target: T29, FLT1 (Homo sapiens, UniProt P17948)
T29 construct: made in house; host or cells: cell-free system (rabbit reticulocyte lysate)
Method: as §1, §2, §3, §4, §5, §6

T28 sequence (P36888 27-993): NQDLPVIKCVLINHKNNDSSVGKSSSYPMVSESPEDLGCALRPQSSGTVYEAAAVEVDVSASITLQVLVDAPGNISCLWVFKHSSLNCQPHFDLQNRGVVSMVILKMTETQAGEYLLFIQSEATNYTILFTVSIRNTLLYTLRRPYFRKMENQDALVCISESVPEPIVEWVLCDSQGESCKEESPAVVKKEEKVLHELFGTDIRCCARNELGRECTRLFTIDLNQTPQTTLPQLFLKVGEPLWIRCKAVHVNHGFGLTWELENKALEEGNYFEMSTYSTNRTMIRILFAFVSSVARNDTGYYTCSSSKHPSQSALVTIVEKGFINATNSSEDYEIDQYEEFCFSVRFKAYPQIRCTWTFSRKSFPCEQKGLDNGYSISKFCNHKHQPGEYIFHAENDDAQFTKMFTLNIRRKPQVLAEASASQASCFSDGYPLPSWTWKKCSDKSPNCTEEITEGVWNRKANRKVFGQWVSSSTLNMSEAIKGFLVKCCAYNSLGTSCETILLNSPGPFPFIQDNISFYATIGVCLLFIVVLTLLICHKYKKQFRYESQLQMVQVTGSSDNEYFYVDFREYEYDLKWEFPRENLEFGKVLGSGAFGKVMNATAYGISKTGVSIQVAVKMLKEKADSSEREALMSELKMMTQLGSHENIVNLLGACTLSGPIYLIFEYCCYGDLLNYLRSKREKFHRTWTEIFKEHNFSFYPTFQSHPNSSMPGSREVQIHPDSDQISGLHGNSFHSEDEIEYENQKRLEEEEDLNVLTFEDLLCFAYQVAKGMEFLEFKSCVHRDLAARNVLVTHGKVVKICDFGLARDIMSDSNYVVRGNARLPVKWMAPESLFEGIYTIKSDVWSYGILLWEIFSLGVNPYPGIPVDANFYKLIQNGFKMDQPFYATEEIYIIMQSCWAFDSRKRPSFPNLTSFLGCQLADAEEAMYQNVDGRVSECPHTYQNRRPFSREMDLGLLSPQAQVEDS
T27 sequence (P06213 28-1382): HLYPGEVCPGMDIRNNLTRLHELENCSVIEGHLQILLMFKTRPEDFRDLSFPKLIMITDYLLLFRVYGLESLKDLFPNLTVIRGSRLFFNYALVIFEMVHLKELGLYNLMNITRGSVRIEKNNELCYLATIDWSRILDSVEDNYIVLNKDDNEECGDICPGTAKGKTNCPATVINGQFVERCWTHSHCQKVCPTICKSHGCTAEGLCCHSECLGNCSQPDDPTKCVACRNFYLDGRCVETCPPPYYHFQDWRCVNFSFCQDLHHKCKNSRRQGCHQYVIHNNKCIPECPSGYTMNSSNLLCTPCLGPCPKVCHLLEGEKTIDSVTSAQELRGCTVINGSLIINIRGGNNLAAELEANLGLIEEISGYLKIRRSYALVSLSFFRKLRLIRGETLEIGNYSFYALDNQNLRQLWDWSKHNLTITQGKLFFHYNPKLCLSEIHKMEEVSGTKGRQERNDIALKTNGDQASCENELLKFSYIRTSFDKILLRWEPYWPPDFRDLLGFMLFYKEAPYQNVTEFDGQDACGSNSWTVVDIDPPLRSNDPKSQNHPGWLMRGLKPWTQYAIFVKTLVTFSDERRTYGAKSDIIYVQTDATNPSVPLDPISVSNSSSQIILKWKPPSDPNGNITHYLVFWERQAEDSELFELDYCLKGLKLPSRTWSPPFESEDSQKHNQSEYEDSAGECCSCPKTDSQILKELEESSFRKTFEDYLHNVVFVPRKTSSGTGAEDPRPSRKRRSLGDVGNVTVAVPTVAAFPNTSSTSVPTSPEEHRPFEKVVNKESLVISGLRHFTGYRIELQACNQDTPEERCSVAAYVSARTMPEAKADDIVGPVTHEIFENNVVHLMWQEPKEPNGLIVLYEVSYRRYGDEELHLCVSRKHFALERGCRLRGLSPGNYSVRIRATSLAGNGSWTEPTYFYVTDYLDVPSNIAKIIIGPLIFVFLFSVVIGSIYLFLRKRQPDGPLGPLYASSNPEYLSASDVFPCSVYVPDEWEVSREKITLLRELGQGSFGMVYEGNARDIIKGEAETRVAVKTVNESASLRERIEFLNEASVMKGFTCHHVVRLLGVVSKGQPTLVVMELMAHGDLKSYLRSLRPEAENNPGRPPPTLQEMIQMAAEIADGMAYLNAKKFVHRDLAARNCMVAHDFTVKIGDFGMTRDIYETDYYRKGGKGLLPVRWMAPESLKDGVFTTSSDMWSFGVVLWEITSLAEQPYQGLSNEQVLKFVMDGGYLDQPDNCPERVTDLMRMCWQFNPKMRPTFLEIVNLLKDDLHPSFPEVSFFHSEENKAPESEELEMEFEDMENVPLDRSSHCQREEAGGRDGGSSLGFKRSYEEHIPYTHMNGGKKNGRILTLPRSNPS
T29 sequence (P17948 27-1338): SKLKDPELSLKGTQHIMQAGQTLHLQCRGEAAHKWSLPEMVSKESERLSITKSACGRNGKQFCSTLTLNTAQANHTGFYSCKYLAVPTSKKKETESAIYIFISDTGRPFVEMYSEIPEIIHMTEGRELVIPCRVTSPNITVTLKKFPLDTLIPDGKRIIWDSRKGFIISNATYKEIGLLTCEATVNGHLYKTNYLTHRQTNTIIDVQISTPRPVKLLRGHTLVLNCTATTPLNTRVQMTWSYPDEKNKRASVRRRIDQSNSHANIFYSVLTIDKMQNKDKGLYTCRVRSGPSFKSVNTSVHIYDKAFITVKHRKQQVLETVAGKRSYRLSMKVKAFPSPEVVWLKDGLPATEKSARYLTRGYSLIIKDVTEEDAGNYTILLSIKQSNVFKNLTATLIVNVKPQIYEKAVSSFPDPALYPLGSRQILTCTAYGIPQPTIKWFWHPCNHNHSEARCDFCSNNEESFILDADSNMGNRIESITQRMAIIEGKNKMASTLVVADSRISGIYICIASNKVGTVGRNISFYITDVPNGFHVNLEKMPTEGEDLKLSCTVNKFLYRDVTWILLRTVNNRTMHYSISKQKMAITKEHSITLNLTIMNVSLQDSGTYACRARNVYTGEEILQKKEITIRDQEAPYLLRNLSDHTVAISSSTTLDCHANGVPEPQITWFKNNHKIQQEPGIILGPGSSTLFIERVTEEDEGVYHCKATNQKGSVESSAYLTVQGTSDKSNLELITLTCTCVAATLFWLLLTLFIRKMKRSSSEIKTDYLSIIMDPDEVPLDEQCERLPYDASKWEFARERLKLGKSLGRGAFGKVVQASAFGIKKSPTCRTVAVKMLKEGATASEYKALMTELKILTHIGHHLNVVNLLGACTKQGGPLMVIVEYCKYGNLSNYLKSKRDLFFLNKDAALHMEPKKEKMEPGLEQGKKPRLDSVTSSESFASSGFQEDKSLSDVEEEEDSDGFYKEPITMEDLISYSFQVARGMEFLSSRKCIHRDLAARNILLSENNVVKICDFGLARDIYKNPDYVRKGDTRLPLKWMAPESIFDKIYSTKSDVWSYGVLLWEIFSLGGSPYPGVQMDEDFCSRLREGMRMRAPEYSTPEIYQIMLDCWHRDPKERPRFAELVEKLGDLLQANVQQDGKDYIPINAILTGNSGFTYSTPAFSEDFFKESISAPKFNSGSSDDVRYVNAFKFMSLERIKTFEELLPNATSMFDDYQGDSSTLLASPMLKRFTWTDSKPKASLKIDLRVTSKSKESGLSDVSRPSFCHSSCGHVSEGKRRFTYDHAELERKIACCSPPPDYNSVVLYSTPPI
T7 sequence (P08581 25-1390): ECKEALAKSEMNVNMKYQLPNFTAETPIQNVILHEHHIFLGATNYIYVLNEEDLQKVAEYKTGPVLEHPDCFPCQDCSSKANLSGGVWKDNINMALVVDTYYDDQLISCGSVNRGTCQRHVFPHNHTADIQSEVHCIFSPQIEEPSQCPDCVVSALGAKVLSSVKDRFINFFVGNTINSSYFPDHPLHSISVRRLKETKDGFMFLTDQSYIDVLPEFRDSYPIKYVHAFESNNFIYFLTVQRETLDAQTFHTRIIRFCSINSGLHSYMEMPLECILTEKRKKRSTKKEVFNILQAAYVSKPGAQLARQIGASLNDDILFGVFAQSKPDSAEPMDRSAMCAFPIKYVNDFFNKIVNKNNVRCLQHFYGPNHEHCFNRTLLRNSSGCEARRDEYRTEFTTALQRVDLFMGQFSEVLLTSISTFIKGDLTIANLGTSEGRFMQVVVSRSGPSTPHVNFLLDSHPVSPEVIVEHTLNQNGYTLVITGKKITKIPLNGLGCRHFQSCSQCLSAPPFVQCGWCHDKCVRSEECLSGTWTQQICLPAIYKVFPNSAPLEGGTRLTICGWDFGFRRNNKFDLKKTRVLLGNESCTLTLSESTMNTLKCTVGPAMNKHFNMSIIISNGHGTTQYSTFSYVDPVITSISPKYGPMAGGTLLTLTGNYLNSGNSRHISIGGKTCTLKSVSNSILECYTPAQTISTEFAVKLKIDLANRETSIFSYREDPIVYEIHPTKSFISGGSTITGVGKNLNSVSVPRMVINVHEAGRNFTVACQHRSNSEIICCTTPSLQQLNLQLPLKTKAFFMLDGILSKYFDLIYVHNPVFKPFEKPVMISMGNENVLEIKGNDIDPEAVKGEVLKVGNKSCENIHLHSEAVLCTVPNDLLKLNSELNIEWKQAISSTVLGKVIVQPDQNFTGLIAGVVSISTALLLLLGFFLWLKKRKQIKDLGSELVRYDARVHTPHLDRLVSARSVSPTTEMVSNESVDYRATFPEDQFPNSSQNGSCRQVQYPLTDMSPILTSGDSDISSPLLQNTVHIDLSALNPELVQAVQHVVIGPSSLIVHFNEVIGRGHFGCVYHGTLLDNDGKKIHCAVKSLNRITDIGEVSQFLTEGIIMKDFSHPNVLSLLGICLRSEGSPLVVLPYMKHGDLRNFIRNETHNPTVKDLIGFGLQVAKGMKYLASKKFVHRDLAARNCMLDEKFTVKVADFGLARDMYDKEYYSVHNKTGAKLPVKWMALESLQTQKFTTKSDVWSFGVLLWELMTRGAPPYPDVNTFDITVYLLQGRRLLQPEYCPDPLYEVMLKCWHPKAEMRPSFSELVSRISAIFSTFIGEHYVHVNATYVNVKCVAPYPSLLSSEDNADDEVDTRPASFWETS

## C#Cc1cccc(Nc2ncnc3cc(OCCOC)c(NC(=O)c4ccc(F)c([N+](=O)[O-])c4)cc23)c1 [Reno647, 4-Fluoro-N-[4-(3-ethynyl-phenylamino)-7-(2-methoxy-ethoxy)-quinazolin-6-yl]-3-nitro-benzamide]
PDGFRA
  remaining binding at 2 µM: 96.4%
RSK1
  remaining binding at 2 µM: 100%
AKT2
  remaining binding at 2 µM: 100%
FLT4
  remaining binding at 2 µM: 79.8%
AKT3
  remaining binding at 2 µM: 100%
VEGFR2
  remaining binding at 2 µM: 92.8%
MET
  remaining binding at 2 µM: 100%
IGF1R
  remaining binding at 2 µM: 95.5%
CDK8
  remaining binding at 2 µM: 92.3%
CDK5
  remaining binding at 2 µM: 99.5%
p38a
  % Activity Remaining: 100.0%
RIPK2
  remaining binding at 2 µM: ~41%
GSK3A
  remaining binding at 2 µM: 100%
CSF1R
  remaining binding at 2 µM: 97.6%
SRC
  remaining binding at 2 µM: 84.9%
MLK2
  remaining binding at 2 µM: 99.7%
YES1
  remaining binding at 2 µM: 87.1%
BRAF
  remaining binding at 2 µM: 100%
TESK1
  remaining binding at 2 µM: 100%
HER2
  remaining binding at 2 µM: 100%
EPHB2
  remaining binding at 2 µM: 100%
MSK1
  remaining binding at 2 µM: 100%
TEC
  remaining binding at 2 µM: 97.4%
MUSK
  remaining binding at 2 µM: 91.8%
PDPK1
  remaining binding at 2 µM: 92.8%
FGFR3
  remaining binding at 2 µM: 98.9%
ABL1
  remaining binding at 2 µM: 100%
INSR
  remaining binding at 2 µM: 84.6%
FLT3
  remaining binding at 2 µM: 100%
FLT1
  remaining binding at 2 µM: 80.5%
